Test [1] deals with OVCAR3 cells. The test is described as follows: MTT proliferation assay, OVCAR3.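 Further: compound given as an 8- or 10-point series, one day after plating, with exposure covering roughly 3-4 cell doublings.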 It counts as cell-based. The following applies: 5 days compound exposure, 1:3 serial dilution starting at 10 μM. In general terms: Formazan colour is commonly taken as a measure of viable cells.
Test [2] has as its system NCI-H1048 cells. Nature of the test: MTT proliferation assay, NCI-H1048.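 Further: Dose-response in 96-well plates over 8 or 10 concentration points, with exposure spanning 3-4 cell doublings.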 In kind it is cell-based. Conditions: 5 days compound exposure, 1:3 serial dilution starting at 10 μM.
Test [3] deals with T1, CyclinA2/CDK2 (Homo sapiens, UniProt P20248).
T1 construct: purchased CRELUX Protein Services
The test is described as follows: Fluorescence Polarization (FP) competitive binding assay, Cyclin A2/Cdk2.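 Further: plates equilibrated two hours at room temperature before polarization reading, IC50 fitted from eight-concentration compound titration curves.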 Conditions: 8 nM Cyclin A2/Cdk2, 2 nM FAM probe; average of 2-3 independent experiments; read-out: Cyclin A FP IC50. (In general: Polarisation of emitted light reports the rotation of a fluorescent probe.)

Test [4] addresses T2, CyclinE1/CDK2 (Homo sapiens, UniProt P24864).
T2 construct: purchased Eurofins, discovery 14-475
Nature of the test: Fluorescence Polarization (FP) competitive binding assay, Cyclin E1/Cdk2.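 Further: readings taken after two-hour equilibration at room temperature in HEPES buffer with NaCl, DTT, NP-40 and BSA, IC50 fitted from eight-concentration serial dilution series.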 The following applies: 10 nM Cyclin E1/Cdk2, 2 nM FAM probe; average of 2-3 independent experiments; read-out: Cyclin E FP IC50.

Test [5] addresses T3, CyclinB1/CDK1 (Homo sapiens, UniProt P14635).
T3 construct: purchased Eurofins, discovery 14-450
Nature of the test: Fluorescence Polarization (FP) competitive binding assay, Cyclin B1/Cdk1.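 Further: fluorescence polarization read after equilibration at room temperature, with IC50 taken from serially diluted dose-response curves.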 Conditions: 10 nM Cyclin B1/Cdk1, 2 nM FAM probe; average of 2-3 independent experiments; read-out: Cyclin B FP IC50.

Test [6] has as its system WI-38 cells. The test is described as follows: MTT proliferation assay, WI-38.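 Further: Eight- or ten-point dilution series, with exposure length chosen to span about three to four cell doublings.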 In kind it is cell-based. Conditions: 3 days compound exposure, 1:3 serial dilution starting at 10 μM.

Data on 18 compounds can be found in patent US20240408169A1 (priority 2023, published 2024).

Structures are written as SMILES. *1 amine or outer side, *2 acyl side, *3 side chain or, on linkers, in order; H or OH if unused. Where a SMILES comes first, the peptide text is derived from it. Bridges are numbered along the chain shown (N, C = ends). [ ]: non-standard residue; d: D form. The star is where a group is joined. X90 = CC(=O)N1CC=C(c2ccc(Cl)cc2C[C@@H](C(=O)[*:2])N(C)[*:1])CC1; X104 = CN([C@@H](Cc1cc(Cl)ccc1C1=CCOCC1)C(=O)[*:2])[*:1]; NMe(hhhLys) = CN([C@@H](CCCCCCCN[*:3])C(=O)[*:2])[*:1]; cBuCO(3,3-F2-1-CF3) = O=C(C1(C(F)(F)F)CC(F)(F)C1)*; Pro(trans-4-F) = O=C(O)[C@@H]1C[C@@H](F)CN1; Gly(cPr) = N[C@H](C(=O)O)C1CC1

What is called GI50 is the concentration that inhibits growth by half. What is called IC50 is the point on the concentration scale where inhibition reaches its midpoint. For the compound `CC(C)C[C@@H]1NC(=O)[C@@H](N(C)C(=O)[C@@H](NC(=O)[C@@H]2C[C@@H](F)CN2C(=O)C2(C(F)(F)F)CCC2)C2CC2)CC=CCCCCNC(=O)[C@H](Cc2cc(Cl)cnc2OC(C)C)N(C)C1=O` (single isomer, unassigned) [Example 136-P2], the GI50 in test [1] came to 640 nM; in test [2], 450 nM; in test [6] it was 6670 nM. Besides, the IC50 was 80 nM in test [3], 120 nM in test [4] and 20 nM in test [5].
Turning to `CC[C@H](NC(=O)C1(C(F)(F)F)CC1)C(=O)N[C@@H](C)C(=O)N[C@H]1CC=CCCCCNC(=O)[C@H](Cc2cc(Cl)ccc2Cl)N(C)C(=O)[C@H](CC(C)C)NC1=O` [Example 1, N—((S)-1-(((S)-1-(((3S,6S,9S)-3-(2,5-dichlorobenzyl)-6-isobutyl-4-methyl-2,5,8-trioxo-1,4,7-triazacyclohexadec-11-en-9-yl)amino)-1-oxopropan-2-yl)amino)-1-oxobutan-2-yl)-1-(trifluoromethyl)cyclopropane-1-carboxamide], the results for the GI50 in test [1], in test [2] and in test [6] were 6610 nM, 4000 nM and 14600 nM, respectively. Further, the IC50 in test [3] is 210 nM; in test [4] it was 440 nM; in test [5], 20 nM.
For the compound `CC(C)C[C@@H]1NC(=O)[C@@H](N(C)C(=O)[C@@H](NC(=O)[C@@H]2C[C@@H](F)CN2C(=O)C2(C(F)(F)F)CC(F)(F)C2)C2CC2)CC=CCCCCNC(=O)[C@H](Cc2cc(Cl)ccc2C2=CCOCC2)N(C)C1=O` [Example 17], the GI50 was 560 nM in test [1], 240 nM in test [2] and 17900 nM in test [6]. Moreover, the IC50 in test [3] is 90 nM; in test [4], 4110 nM; in test [5], 20 nM.
`CC(=O)N1CC=C(c2ccc(Cl)cc2C[C@H]2C(=O)NCCCCC=CC[C@H](N(C)C(=O)[C@@H](NC(=O)[C@@H]3C[C@@H](F)CN3C(=O)C3(C(F)(F)F)CC(F)(F)C3)C3CC3)C(=O)N[C@@H](CC(C)C)C(=O)N2C)CC1` [Example 18]: the GI50 amounted to 340 nM in test [1], 170 nM in test [2] and 9030 nM in test [6]. The figures for the IC50 in test [3], in test [4] and in test [5] were 90 nM, 6190 nM and 20 nM, respectively.
Take `CC(=O)N1CC=C(c2ccc(Cl)cc2C[C@H]2C(=O)NCCCCCCC[C@H](N(C)C(=O)[C@@H](NC(=O)[C@@H]3C[C@@H](F)CN3C(=O)C3(C(F)(F)F)CC(F)(F)C3)C3CC3)C(=O)N[C@@H](CC(C)C)C(=O)N2C)CC1` [Example 20] ({cBuCO(3,3-F2-1-CF3)}-[Pro(trans-4-F)][Gly(cPr)][NMe(hhhLys)]L[X90]; lactam 3-C): the values for the GI50 in test [1], in test [2] and in test [6] were 20 nM, 20 nM and 11100 nM, respectively. Moreover, the IC50 was found to be 20 nM in test [3], 1520 nM in test [4] and 20 nM in test [5].
For `CC(C)C[C@@H]1NC(=O)[C@@H](N(C)C(=O)[C@@H](NC(=O)[C@@H]2C[C@@H](F)CN2C(=O)C2(C(F)(F)F)CC(F)(F)C2)C2CC2)CCCCCCCNC(=O)[C@H](Cc2cc(Cl)ccc2C2=CCOCC2)N(C)C1=O` [Example 21] ({cBuCO(3,3-F2-1-CF3)}-[Pro(trans-4-F)][Gly(cPr)][NMe(hhhLys)]L[X104]; lactam 3-C), the values for the GI50 in test [1], in test [2] and in test [6] were 20 nM, 10 nM and 6850 nM, respectively. For the same compound, the IC50 in test [3] turned out to be 20 nM; in test [4], 1130 nM; in test [5], 20 nM.
On to `CC(C)C[C@@H]1NC(=O)[C@@H](N(C)C(=O)[C@@H](NC(=O)[C@@H]2C[C@@H](F)CN2C(=O)C2(C(F)(F)F)CC(F)(F)C2)C2CC2)CC=CCCCCNC(=O)[C@H](Cc2cc(Cl)ccc2-c2cnn(C)c2)N(C)C1=O` [Example 26], for which the GI50 in test [1] was 170 nM; in test [2] it was 110 nM; in test [6], 8740 nM. For the same compound, the IC50 in test [3] turned out to be 60 nM; in test [4] it was 1170 nM; in test [5], 20 nM.
On to `CC(C)C[C@@H]1NC(=O)[C@@H](N(C)C(=O)[C@@H](NC(=O)[C@@H]2C[C@@H](F)CN2C(=O)C2(C(F)(F)F)CC(F)(F)C2)C2CC2)CC=CCCCCNC(=O)[C@H](Cc2cc(Cl)ccc2-c2cnn(C3COC3)c2)N(C)C1=O` [Example 27], for which the GI50 amounted to 370 nM in test [1], 90 nM in test [2] and 11400 nM in test [6]. Further, the IC50 was found to be 90 nM in test [3], 1900 nM in test [4] and 20 nM in test [5].
With `CC(C)C[C@@H]1NC(=O)[C@@H](N(C)C(=O)[C@@H](NC(=O)[C@@H]2C[C@@H](F)CN2C(=O)C2(C(F)(F)F)CCC2)C2CC2)CC=CCCCCNC(=O)[C@H](Cc2cc(Cl)ccc2-c2cnn(C3COC3)c2)N(C)C1=O` [Example 32], the GI50 in test [1] was 250 nM; in test [2], 140 nM; in test [6], 11800 nM. Also, the values for the IC50 in test [3], in test [4] and in test [5] were 50 nM, 590 nM and 20 nM, respectively.
Take `CC(C)C[C@@H]1NC(=O)[C@@H](N(C)C(=O)[C@@H](NC(=O)[C@@H]2C[C@@H](F)CN2C(=O)C2(C(F)(F)F)CCC2)C2CC2)CC=CCCCCNC(=O)[C@H](Cc2cc(Cl)ccc2-c2cnn(CCO)c2)N(C)C1=O` [Example 33]: the GI50 in test [1] was 170 nM; in test [2] it was 90 nM; in test [6], 15600 nM. For the same compound, the IC50 is 20 nM in test [3], 270 nM in test [4] and 20 nM in test [5].
Turning to `CC(C)C[C@@H]1NC(=O)[C@@H](N(C)C(=O)[C@@H](NC(=O)[C@@H]2C[C@@H](F)CN2C(=O)C2(C(F)(F)F)CCC2)C2CC2)CC=CCCCCN(C)C(=O)[C@H](Cc2cc(Cl)ccc2-c2cnn(C)c2)N(C)C1=O` [Example 34], the values for the GI50 in test [1], in test [2] and in test [6] were 110 nM, 60 nM and 13100 nM, respectively. In addition, the values for the IC50 in test [3], in test [4] and in test [5] were 20 nM, 210 nM and 20 nM, respectively.
On to `CC(C)C[C@@H]1NC(=O)[C@@H](N(C)C(=O)[C@@H](NC(=O)[C@@H]2C[C@@H](F)CN2C(=O)C2(C(F)(F)F)CCC2)C2CC2)CC=CCCCCN(C)C(=O)[C@H](Cc2cc(Cl)ccc2-c2cncnc2)N(C)C1=O` [Example 35], for which the GI50 in test [1] was determined as 350 nM; in test [2], 170 nM; in test [6], 12400 nM. Also, the IC50 came out at 120 nM in test [3], 1690 nM in test [4] and 20 nM in test [5].
For the compound `CC(=O)N1CC=C(c2ccc(Cl)cc2C[C@H]2C(=O)N(C)CCCCC=CC[C@H](N(C)C(=O)[C@@H](NC(=O)[C@@H]3C[C@@H](F)CN3C(=O)C3(C(F)(F)F)CCC3)C3CC3)C(=O)N[C@@H](CC(C)C)C(=O)N2C)CC1` [Example 36], the figures for the GI50 in test [1], in test [2] and in test [6] were 350 nM, 110 nM and 16000 nM, respectively. Moreover, the IC50 in test [3] was 30 nM; in test [4], 820 nM; in test [5] it was 20 nM.
For `CC(C)C[C@@H]1NC(=O)[C@@H](N(C)C(=O)[C@@H](NC(=O)[C@@H]2C[C@@H](F)CN2C(=O)C2(C(F)(F)F)CCC2)C2CC2)CC=CCCCCN(C)C(=O)[C@H](Cc2cc(F)ccc2-c2cnn(C)c2)N(C)C1=O` [Example 40], the concentration for 50% growth inhibition (GI50) is 50 nM in test [1], 60 nM in test [2] and 15400 nM in test [6]. The IC50 in test [3] worked out at 50 nM; in test [4], 240 nM; in test [5], 20 nM.
Turning to `COCCn1cc(-c2ccc(Cl)cc2C[C@H]2C(=O)NCCCCC=CC[C@H](N(C)C(=O)[C@@H](NC(=O)[C@@H]3C[C@@H](F)CN3C(=O)C3(C(F)(F)F)CC(F)(F)C3)C3CC3)C(=O)N[C@@H](CC(C)C)C(=O)N2C)cn1` [Example 43], the 50% growth inhibitory concentration (GI50) in test [1] came out at 40 nM; in test [2], 30 nM; in test [6] it was 8570 nM. The IC50 in test [3] worked out at 40 nM; in test [4], 370 nM; in test [5], 20 nM.
Regarding `COCCn1cc(-c2ccc(Cl)cc2C[C@H]2C(=O)N(C)CCCCC=CC[C@H](N(C)C(=O)[C@@H](NC(=O)[C@@H]3C[C@@H](F)CN3C(=O)C3(C(F)(F)F)CC(F)(F)C3)C3CC3)C(=O)N[C@@H](CC(C)C)C(=O)N2C)cn1` [Example 44], the GI50 in test [1] was 40 nM; in test [2] it was 20 nM; in test [6], 6600 nM. The results for the IC50 in test [3], in test [4] and in test [5] were 30 nM, 270 nM and 20 nM, respectively.
With `CC(C)C[C@@H]1NC(=O)[C@@H](N(C)C(=O)[C@@H](NC(=O)[C@@H]2C[C@@H](F)CN2C(=O)C2(C(F)(F)F)CC(F)(F)C2)C2CC2)CC=CCCCCN(C)C(=O)[C@H](Cc2cc(F)ccc2C2=CCC(O)CC2)N(C)C1=O` (stereo partly drawn) [Example 47], the GI50 in test [1] turned out to be 130 nM; in test [2], 30 nM; in test [6] it was 12900 nM. Besides, the IC50 in test [3] amounted to 40 nM; in test [4] it was 800 nM; in test [5], 20 nM.
For `CC(C)C[C@@H]1NC(=O)[C@@H](N(C)C(=O)[C@@H](NC(=O)[C@@H]2C[C@@H](F)CN2C(=O)C2(C(F)(F)F)CCC2)C2CC2)CC=CCCCCN(C)C(=O)[C@H](Cc2cc(Cl)ccc2Cl)N(C)C1=O` [Example 48], the results for the GI50 in test [1], in test [2] and in test [6] were 50 nM, 40 nM and 15800 nM, respectively. The values for the IC50 in test [3], in test [4] and in test [5] were 80 nM, 130 nM and 20 nM, respectively.
